This note sets out measurements from article PMC9841525, “Chemical Blockage of the Mitochondrial Rhomboid Protease PARL by Novel Ketoamide Inhibitors Reveals Its Role in PINK1/Parkin-Dependent Mitophagy” (Journal of Medicinal Chemistry, 2022).

The target of this assay is T1, PARL (Homo sapiens, UniProt Q9H300).
T1 sequence (Q9H300 53-379): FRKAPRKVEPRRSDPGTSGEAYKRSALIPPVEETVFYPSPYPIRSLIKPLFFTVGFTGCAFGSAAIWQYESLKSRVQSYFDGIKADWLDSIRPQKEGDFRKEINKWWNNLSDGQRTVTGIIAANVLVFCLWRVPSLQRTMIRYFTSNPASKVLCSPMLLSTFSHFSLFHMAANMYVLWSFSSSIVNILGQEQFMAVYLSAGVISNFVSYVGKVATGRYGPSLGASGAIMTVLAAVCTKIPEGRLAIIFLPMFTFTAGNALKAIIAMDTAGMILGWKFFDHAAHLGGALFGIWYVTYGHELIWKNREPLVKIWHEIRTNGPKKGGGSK
As to the kind of experiment: In vitro assay for PARL activity, cleavage of AMC substrates by liposome-embedded PARL. The class given is biochemical. Further details: hexahistidine tag (C); made in house; host or cells: continuous-exchange cell-free expression in bacterial lysates with T7 polymerase (CUBE biotech), into liposomes. Particulars: mature PARL in liposomes, S277A catalytic mutant as control. The procedure: Liposome preparation and cell-free protein expression of PARL were carried out essentially as described previously.[27] Liposomes resembling the lipid composition of the IMM were prepared by mixing 40% DOPC (1,2-dioleoyl-sn-glycero-3-phosphocholine), 33.8% DOPE (1,2-dioleoyl-sn-glycero-3-phosphoethanolamine), 18% CL(18:1)4 (1′,3′-bis[1,2-dioleyl-sn-glycero-3-phospho]-glycerol), 3% DOPS (1,2-dioleoyl-sn-glycero-3-phospho-L-serine), 5% soy-PI (L-α-phosphatidylinositol), and 0.2% rhodamine-PE (1,2-dioleoyl-sn-glycero-3-phosphoethanolamine-N-(lissamine rhodamine B sulfonyl)) in chloroform, followed by the evaporation of chloroform by a stream of nitrogen gas and drying in a vacuum chamber (Binder) for 1 h. […] Concentration of PARL was determined by absorption at 280 nm.
The PARL activity assay in vitro was carried out in 5 mM Tris, 5 mM Mg(OAc)2, 25 μM Zn(OAc)2, 0.1 μg/μL BSA, 30% DMSO, pH 8.0 using PARL in liposomes at 0.05 mg/mL. Compound 3 and 4 were used at 5 μM final concentration based on quantitative amino acid analysis. […] The cleavage reaction was carried out at 37 °C in 96-well black HTS plates (Greiner Bio-One) in a plate reader (Tecan Infinite M1000) with excitation and emission wavelengths set to 355 and 450 nm, respectively. Data were evaluated using Excel (Microsoft) and GraphPad Prism 9 (GraphPad Software, Inc.).

Where a SMILES comes first, the peptide text is derived from it. The star is where a group is joined. AMC = Cc1cc(=O)oc2cc(N*)ccc12

Turning to `CC(=O)N[C@@H](CCCNC(=N)N)C(=O)N[C@@H](CCCNC(=N)N)C(=O)N[C@@H](CCCNC(=N)N)C(=O)N[C@@H](C)C(=O)N[C@H](C(=O)N[C@@H](Cc1ccccc1)C(=O)N[C@@H](CC(C)C)C(=O)N[C@@H](C)C(=O)Nc1ccc2c(C)cc(=O)oc2c1)C(C)C` [compound 4, AcRRRAVFLA-4mc] (Ac-RRRAVFLA-{AMC}), the “Cleavage of substrate by liposome-embedded PARL” value is reported as “are cleaved by liposome-embedded PARL but not its catalytic mutant”.
